# Assays:
# Format in all cases: cell-based
# [1] = test system: C. alb.; assay: Log reduction, single cycle, C. alb.; conditions: for ΔLog - C. alb. 30 sec.: 30 sec. exposure; for ΔLog - C. alb. 5 min.: 5 min. exposure
# Description: (§1) Referring now to FIG. 17, the experiments described above for FIG. 14 were also performed with additional foams, one foam in which 1 gram of Calcium hypochlorite salt was infused (D100, shown as left column for each cycle), and one foam in which 2 grams of Calcium hypochlorite salt was dispersed (D200, shown as right column for each cycle). […] As discussed additionally below, the minimum concentration is significant because testing identified concentrations of hypochlorite-ion as low as 0.5-0.7 mM to have effective antibacterial and antimicrobial properties. Additional testing was performed to measure the zone of inhibition (ZOI) and Log Reduction of microbes for various samples of released aqueous solutions having various concentrations of hypochlorite ion, as listed in Tables 2 and 3. Table 2 lists ZOI and Log reduction data for a single cycle measured at hold times (exposure duration) of 30 seconds and 5 minutes of bacterial exposure to solution. Table 3 lists ZOI and Log reduction data for multiple cycles (each cycle including introduction of hypochlorite solution, and removal of solution prior to beginning next cycle). In the ZOI experimentation, foam discs having a diameter of 8 millimeters (mm) and a height of 5 mm were each saturated with hypochlorite-ion solution as indicated. Table 3 also lists the initial microbe count in log form (10^X, where X is listed in Table 2), log reduction in microbe count, and ZOI in mm. For the data of Table 3, the initial concentration (1×) of hypochlorite ion in solution was 5.7 mM of hypochlorite ion, which corresponds to 0.041% w/v of Ca(OCl)^2. In the Log reduction experimentation, the microbes were exposed to the respective concentration of solution for 30 seconds per cycle. […] The bold entries in Table 3 are indicative of substantially all microbes being killed. In the biofilm eradication cycles listed in Table 6 below, probes were cultured with microbes and incubated to permit formation of a biofilm on the probe. The probe was then exposed to solutions having various concentrations of Calcium hypochlorite solution for multiple cycles, with each cycle including exposure of the probe to solution for a duration of 5 minutes.
# [2] = test system: Staphylococcus aureus USA 400 (MRSA); assay: Log reduction, multiple cycles, S. aureus USA 400 (MRSA); conditions: 30 seconds per cycle
# Description: as §1
# [3] = test system: Staphylococcus aureus ATCC 10832; assay: Minimum Biofilm Eradication Concentration (MBEC), S. aureus ATCC 10832; conditions: Staphylococcus aureus ATCC 10832 biofilm on probe, 5 minutes per cycle, % w/v Ca(OCl)2
# Description: as §1, with “The probe was then exposed to solutions having various concentrations of Calcium hypochlorite solution for multiple cycles, with each cycle including exposure of the probe to solution for a duration of 5 minutes.” left out
# [4] = test system: microbes; assay: antibacterial and antimicrobial testing of hypochlorite-ion concentrations (summary statements)
# Description: Referring now to FIG. 17, the experiments described above for FIG. 14 were also performed with additional foams, one foam in which 1 gram of Calcium hypochlorite salt was infused (D100, shown as left column for each cycle), and one foam in which 2 grams of Calcium hypochlorite salt was dispersed (D200, shown as right column for each cycle). […] As discussed additionally below, the minimum concentration is significant because testing identified concentrations of hypochlorite-ion as low as 0.5-0.7 mM to have effective antibacterial and antimicrobial properties. Additional testing was performed to measure the zone of inhibition (ZOI) and Log Reduction of microbes for various samples of released aqueous solutions having various concentrations of hypochlorite ion, as listed in Tables 2 and 3. Table 2 lists ZOI and Log reduction data for a single cycle measured at hold times (exposure duration) of 30 seconds and 5 minutes of bacterial exposure to solution. Table 3 lists ZOI and Log reduction data for multiple cycles (each cycle including introduction of hypochlorite solution, and removal of solution prior to beginning next cycle). In the ZOI experimentation, foam discs having a diameter of 8 millimeters (mm) and a height of 5 mm were each saturated with hypochlorite-ion solution as indicated. […]
# [5] = Sample Dilution 1x (5.7 mM hypochlorite ion, 0.041% w/v Ca(OCl)2)
# [6] = Sample Dilution 2x of 5.7 mM hypochlorite ion
# [7] = Sample Dilution 4x of 5.7 mM hypochlorite ion
# [8] = Sample Dilution 8x of 5.7 mM hypochlorite ion (lowest concentration, 0.7 mM)
substance,measurement,setting,value
hypochlorite ion [OCl^− Solutions],ΔLog - C. alb. 30 sec.,[1]; 0.8 mM HOCl/OCl−,2.87
same,ΔLog - C. alb. 5 min.,[1]; 0.8 mM HOCl/OCl−,>7.18
same,ΔLog - C. alb. 30 sec.,[1]; 1.9 mM HOCl/OCl−,2.94
same,ΔLog - C. alb. 5 min.,[1]; 1.9 mM HOCl/OCl−,3.77
same,ΔLog - C. alb. 30 sec.,[1]; 3.1 mM HOCl/OCl−,3.08
same,ΔLog - C. alb. 5 min.,[1]; 3.1 mM HOCl/OCl−,>7.18
same,ΔLog - C. alb. 30 sec.,[1]; 4.0 mM HOCl/OCl−,3.94
same,ΔLog - C. alb. 5 min.,[1]; 4.0 mM HOCl/OCl−,>7.18
same,ΔLog - C. alb. 30 sec.,[1]; 10.7 mM HOCl/OCl−,7.18
same,ΔLog - C. alb. 5 min.,[1]; 10.7 mM HOCl/OCl−,>7.18
same,ΔLog - C. alb. 30 sec.,[1]; 15.7 mM HOCl/OCl−,3.50
same,ΔLog - C. alb. 5 min.,[1]; 15.7 mM HOCl/OCl−,>7.18
same,Log Reduction Staphylococcus aureus USA 400 (MRSA) 1 Cycle,[2]; [5],4.15
same,Log Reduction Staphylococcus aureus USA 400 (MRSA) 3 Cycles,[2]; [5],3.63
same,Log Reduction Staphylococcus aureus USA 400 (MRSA) 5 Cycles,[2]; [5],3.91
same,Log Reduction Staphylococcus aureus USA 400 (MRSA) 1 Cycle,[2]; [6],4.15
same,Log Reduction Staphylococcus aureus USA 400 (MRSA) 3 Cycles,[2]; [6],3.63
same,Log Reduction Staphylococcus aureus USA 400 (MRSA) 5 Cycles,[2]; [6],3.91
same,Log Reduction Staphylococcus aureus USA 400 (MRSA) 1 Cycle,[2]; [7],4.15
same,Log Reduction Staphylococcus aureus USA 400 (MRSA) 3 Cycles,[2]; [7],3.63
same,Log Reduction Staphylococcus aureus USA 400 (MRSA) 5 Cycles,[2]; [7],3.91
same,Log Reduction Staphylococcus aureus USA 400 (MRSA) 1 Cycle,[2]; [8],4.15
same,Log Reduction Staphylococcus aureus USA 400 (MRSA) 3 Cycles,[2]; [8],3.63
same,Log Reduction Staphylococcus aureus USA 400 (MRSA) 5 Cycles,[2]; [8],3.91
same,Minimum Biofilm Eradication Concentration (MBEC) 1 Cycle,[3]; 1 Cycle,<0.005% w/v
same,Minimum Biofilm Eradication Concentration (MBEC) 3 Cycles,[3]; 3 Cycles,<0.005% w/v
same,Minimum Biofilm Eradication Concentration (MBEC) 5 Cycles,[3]; 5 Cycles,<0.005% w/v
same,lowest concentrations identified to have effective antibacterial and antimicrobial properties,[4],0.5 to 0.7 mM
same,killing of microbes in Log reduction experimentation,"[4]; five (5) cycles at the lowest concentration (0.7 mM), 30 seconds per cycle",killed substantially all microbes present
